Experimental data: patent US10064858B2, “Methods and compositions for treating bacterial infections with iron chelators” (THE UNITED STATES OF AMERICA, AS REPRESENTED BY THE …, priority 2011, dated 2018)
Entries after “also recorded” stand apart in the source; their conditions may differ.

Tests used:
[1] = tested on: Methicillin-Resistant Staphylococcus aureus (MRSA); assay: Growth (OD600) of MDR bacteria with VK28 in low-iron M9 media; type: cell-based; details: both 100 μM and 200 μM VK28
Method: (§1) Isolates of Extended Spectrum Beta-Lactamase (ESBL) Escherichia coli, Klebsiella pneumoniae, Pseudomonas aeruginosa, and Methicillin-Resistant Staphylococcus aureus (MRSA) were challenged with either 0 μM, 100 μM or 200 μM VK28 in low-iron M9 media after 4 hr of growth. Growth was estimated by absorbance at 600 nm at 24 hr post inoculation.

[2] = tested on: Extended Spectrum Beta-Lactamase (ESBL) Escherichia coli; assay: as above; type: cell-based; details: 200 μM VK28
Method: as §1

[3] = tested on: Pseudomonas aeruginosa; assay: as above; type: cell-based; details: 200 μM VK28
Method: as §1

[4] = tested on: Klebsiella pneumoniae; assay: as above; type: cell-based; details: 200 μM VK28
Method: as §1

[5] = rat; systemically/intravenously; cited from earlier work
[6] = tested on: Acinetobacter baumannii; assay: Growth (OD600) with VK28 in M9 media with magnesium / calcium; type: cell-based; details: 24 hours
Method: Acinetobacter baumannii was grown similar to as described in Example 21 in M9 media containing 2 mM MgSO4 for 24 hours in the presence of 0 μg/ml, 50 μg/ml, 100 μg/ml, or 200 μg/ml VK28. The OD600 was measured at 0, 4, and 24 hour and the results are shown in the time-kill curves of FIG. 19.
In this example, strains of MR Staphylococcus aureus (MRSA), Acinetobacter baumannii (Acinetobacter), Escherichia coli (E. coli), and Pseudomonas aeruginosa (Pseudomonas) were grown in M9 media in the presence of 2 mM MgSO4 and 1.35 mM CaCl2 for 24 hours in the presence or absence of 0 μg/ml, 50 μg/ml, 100 μg/ml, or 200 μg/ml of VK28. The OD600 was measured at 24 hour and the results are shown in the bar graph of FIG. 21.

[7] = tested on: Tetracycline-resistant A. baumannii; assay: Growth (OD600) with VK28, tetracycline or both; type: cell-based
Source text: Growth was estimated by absorbance at 600 nm at 24 hr. (y-axis).

[8] = tested on: MRSA ATCC SA43300; assay: Time-kill assay in CAMHB; type: cell-based, S. aureus; details: 1×MIC and 2×MIC VK28
Method: Reductions in colony forming units (CFU)/mL were determined over time (time-kill assay) after exposure to VK28 and deferiprone (DFP), the two iron chelators that performed best in MIC assays when compared to controls. To better represent the iron content found in the human body, MIC and time-kill assays were also determined in minimal media and tissue culture media. Time-Kill assays were performed as previously described in G. P. Neupane et al., “In vitro time-kill activities of ciprofloxacin alone and in combination with the iron chelator deferasirox against Vibrio vulnificus,” European Journal of Clinical Microbiology and Infectious Diseases, 407-410 (2010); and R. L. White, et al., “Comparison of Three Different In Vitro Methods of Detecting synergy: Time-Kill, Checkerboard, and E test,” Journal of Antimicrobial Agents and Chemotherapy, 1914-1918 (1996). Initial inocula, for example 1×10^6 CFU/mL or 1×10^7 CFU/mL were challenged with iron chelator with and/or without an antibiotic. Cells were allowed to grow in CAMHB at 37° C. for 24 hours. Time-kill results were analyzed by determining the change in log 10 numbers of CFU/ml at 0, 6, and 24 h, compared to counts at 0 h. […]

[9] = tested on: AB5075 (MRSN959); assay: Infected punch biopsy wound in mice, topical treatment; type: in vivo
Source text: This example provides an in vivo evaluation of the effectiveness of VK28 in treating a bacterial infection. Mice were wounded with 6 mm punch biopsy and infected with AB5075 (MRSN959) and treated daily for 14 days with poloxamer F-127 gel alone as a control composition (FIG. 11A) or F-127 gel containing 5% VK28 (as a topical composition containing an iron chelator).

[10] = tested on: Bioluminescent AB0057; assay: Bioluminescent AB0057 challenged with iron chelators; type: cell-based, Acinetobacter baumannii; details: 100 μm; 4 hours; low iron media
Source text: This example studies bioluminescent A. baumannii challenged with iron chelators. AB0057 is a strain of Acinetobacter baumannii available from Robert Bonomo, Case Western Reserve University, Cleveland, Ohio.
As a precursor to conducting this in vitro assay, AB0057 was transformed with a bioluminescent plasmid. The p16Slux plasmid is illustrated in FIG. 38, and further details regarding its development and use are set forth in Christian U. Riedel et al., “Construction of p16Slux, a Novel Vector for Improved Bioluminescent Labeling of Gram-Negative Bacteria,” Appl. Environ. Microbiol. 2007 November; 73(21): 7092-7095.
Bioluminescent AB0057 were grown overnight in LB media and sub-cultured into low iron media in a 96-well plate containing varying concentrations of iron chelators for 4 hours. Bacterial growth was measured by bioluminescence (relative light units). The iron chelators VK28 and DFO were tested along with chelators DIP, ETTA, and EDTA as controls. The chelators were tested a concentrations of 0 μM, […], 3.13 μM, 6.25 μM, 12.5 μM, 25 μM, 50 μM, and 100 μM.

[11] = tested on: A. baumannii strain AB19606; assay: Growth (OD600) with chelator, Rifampin or both; type: cell-based; details: 1.5×MIC Apo6619 in combination with ¾×MIC Rifampicin
Method: A. baumannii strain AB19606 was grown in CAMHB and challenged with 1.5×MIC compound 4 (Var) or 1.5×MIC Triapine (Tri) with or without 0.75×MIC Rifampin (Rif). Growth was estimated by absorbance at 600 nm (y-axis) at 0 or 24 hours.

[12] = tested on: E. coli O157:H7; assay: Time-kill assay, Apo6619 with Rifampin; type: cell-based; details: 1.5×MIC Apo6619 in combination with 0.75×MIC Rifampin; 0, 5 and 24 hours
Method: Reductions in colony forming units (CFU)/mL were determined over time (time-kill assay) after exposure to VK28 and deferiprone (DFP), the two iron chelators that performed best in MIC assays when compared to controls. To better represent the iron content found in the human body, MIC and time-kill assays were also determined in minimal media and tissue culture media. Time-Kill assays were performed as previously described in G. P. Neupane et al., “In vitro time-kill activities of ciprofloxacin alone and in combination with the iron chelator deferasirox against Vibrio vulnificus,” European Journal of Clinical Microbiology and Infectious Diseases, 407-410 (2010); and R. L. White, et al., “Comparison of Three Different In Vitro Methods of Detecting synergy: Time-Kill, Checkerboard, and E test,” Journal of Antimicrobial Agents and Chemotherapy, 1914-1918 (1996). Initial inocula, for example 1×10^6 CFU/mL or 1×10^7 CFU/mL were challenged with iron chelator with and/or without an antibiotic. […] Time-kill results were analyzed by determining the change in log 10 numbers of CFU/ml at 0, 6, and 24 h, compared to counts at 0 h. […]
In this example, time-kill assays were performed as described in Example 9 using Apo6619 as the iron chelator in combination with Rifampin against E. coli O157:H7. […] Time-kill results were analyzed by determining the change in log 10 numbers of CFU/mL at 0, 5 and 24 hours.

| Structure (SMILES) | OD600 at 24 hr post inoculation [1] | growth (OD600) at 24 hr post inoculation [2] | OD600 at 24 hr post inoculation [3] | growth (OD600) at 24 hr post inoculation [4] | dose showing toxicity [5] [mg/kg] | inhibition of growth (OD600) ([6]; M9 with 2 mM MgSO4, 50-200 μg/ml VK28) | inhibition of growth (OD600) ([6]; M9 with 2 mM MgSO4 and 1.35 mM CaCl2) | reduction of bacteria (absorbance at 600 nm at 24 hr) ([7]; 400 μM Vk28 in combination with 16 ug/mL tetracycline) | reduction of bacteria (absorbance at 600 nm at 24 hr) ([7]; single agent: 400 μM Vk28 or 16 ug/mL tetracycline, low-iron M9) | time-kill effect [8] | wound healing ([9]; F-127 gel containing 5% VK28, topical, daily for 14 days, vs gel alone (FIG. 11)) | wound healing ([9]; composition containing 1% VK28, other mice) | wound healing ([9]; composition containing 5% VK28, other mice) | Bioluminescence (relative light units) [10] | growth (absorbance at 600 nm) at 24 hour [11] | time kill curves [12] |
| --- | --- | --- | --- | --- | --- | --- | --- | --- | --- | --- | --- | --- | --- | --- | --- | --- |
| OCCN1CCN(Cc2ccc(O)c3ncccc23)CC1 [VK28, 5-(4-(2-hydroxyethyl)piperazin-1-ylmethyl)-8-hydroxyquinoline] | significantly reduced | reduced | significantly reduced | reduced | 70 | inhibition of growth of Acinetobacter baumannii is not reduced in the presence of magnesium | inhibition of growth of a number of strains of bacteria is not reduced in the presence of magnesium and calcium | the reduction in bacteria was greater than the added reductions from separate administration of tetracycline and VK28 | significant reduction in bacteria | bacteriostatic (considered bacteriostatic if the inoculum's size was reduced by 0 to <3 log 10 CFU/ml) | Healing scab and reduced wound size; also recorded: the wound treated with the control composition did not heal as well as the wound treated with the iron chelator composition | not particularly efficacious | efficacious in promoting wound healing | especially surprisingly lower | – | – |
| CNC(=O)c1c(O)c(=O)cc(C)n1C1CC1 [Apo6619, 1-cyclopropyl-3-hydroxy-6-methyl-4-oxo-1,4-dihydro-pyridine-2-carboxylic acid methylamide] | – | – | – | – | – | – | – | – | – | – | – | – | – | – | synergistic effect in inhibiting growth of AB19606 | combinational effect |
